From patent publication US20230257351A1, “SUBSTITUTED N-[…] HAVING P2X4 RECEPTOR ANTAGONISTIC ACTIVITY” (Bayer Aktiengesellschaft, priority 2020, published 2023)

Columns and labels:
[1] = target: T1, rat P2X4 (Rattus norvegicus, UniProt P51577); assay: FLIPR Method for Rat P2X4 1321N1 Astrocytoma Cells; assay type: cell-based; conditions: 1321N1 stably expressing rat P2X4; agonist MgATP 5 μM (EC80)
T1 construct: expressed in transfected cells
T1 sequence (P51577 1-388): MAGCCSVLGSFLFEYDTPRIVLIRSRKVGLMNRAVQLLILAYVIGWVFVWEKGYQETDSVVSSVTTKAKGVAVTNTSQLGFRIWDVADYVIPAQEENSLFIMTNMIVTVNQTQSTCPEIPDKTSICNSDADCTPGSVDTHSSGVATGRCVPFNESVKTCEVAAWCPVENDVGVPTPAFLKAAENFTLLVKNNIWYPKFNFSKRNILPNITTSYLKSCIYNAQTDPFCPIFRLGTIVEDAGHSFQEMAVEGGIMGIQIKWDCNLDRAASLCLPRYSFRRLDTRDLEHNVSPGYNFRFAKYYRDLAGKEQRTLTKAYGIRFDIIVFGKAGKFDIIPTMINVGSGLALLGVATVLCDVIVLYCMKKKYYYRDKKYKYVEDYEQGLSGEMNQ
Description: Compounds were tested on a 1321N1 cell line stably expressing rat P2X4. Cells were cultured on collagen-I-coated 384-well plates at a density of 10,000 cells/well and incubated overnight at 37° C., 5% CO2. P2X4 function was assessed by measuring intracellular calcium fluxes caused by Magnesium-ATP (MgATP) using the calcium-chelating dye Fluo8-AM (Molecular Devices) with the Fluorescent Imaging Plate Reader Tetra (FLIPR^Tetra; Molecular Devices CA). On the day of the assay, the medium was removed and the cells were incubated for 30 minutes at 37° C. and 5% CO2 in 30 μl of dye buffer (Hank's balanced salt solution, 10 mM HEPES, 1.8 mM CaCl2, 1 mM MgCl2, 2 mM probenecid, 5 mM D-glucose monohydrate, 5 μM Fluo8-AM, pH=7.4).
Compounds diluted in probenecid buffer (Hank's balanced salt solution, 10 mM HEPES, 1.8 mM CaCl2, 1 mM MgCl2, 2 mM probenecid, 5 mM D-glucose monohydrate, pH=7.4) at ten concentrations ranging from 25 μM to 1 nM (final concentration) were dispensed and incubated for 30 minutes at room temperature. The agonist, MgATP (Sigma-Aldrich Chemie GmbH, DE), was added at a final concentration of 5 μM, representing the EC80 routinely determined. The final assay volume was 50 μl and final DMSO concentration was 0.5%.
The fluorescence intensity reflecting intracellular calcium changes was recorded before and after MgATP addition, at an excitation and emission wavelengths of 470-495 nm and 515-575 nm respectively.
The compounds were tested in triplicates and fluorescence intensity raw data normalized to the agonist control and fitted to the four-parameter logistic equation:
Y=Bottom+(Top−Bottom)/(1+10^((Log IC50−X)*HillSlope))
Assay plate acceptance was based on the signal window (S/B)[…] and the reference compound pIC50 within ±[…] the mean of historic pIC50 of the compound. Failure to meet two of the three criteria determined exclusion of the plate's results. In Table 10 below the results for the assays are reported

[2] = target: T2, human P2X4 (Homo sapiens, UniProt Q99571); assay: Human P2X4 HEK Cell FLIPR Assay; assay type: cell-based; conditions: HEK293 stably expressing human P2X4, agonist Bz-ATP 3 μM (EC80); for IC50: read-out: Human P2X4 HEK Cells (FLIPR Assay) avg IC50
T2 construct: expressed in transfected cells
T2 sequence (Q99571 1-388): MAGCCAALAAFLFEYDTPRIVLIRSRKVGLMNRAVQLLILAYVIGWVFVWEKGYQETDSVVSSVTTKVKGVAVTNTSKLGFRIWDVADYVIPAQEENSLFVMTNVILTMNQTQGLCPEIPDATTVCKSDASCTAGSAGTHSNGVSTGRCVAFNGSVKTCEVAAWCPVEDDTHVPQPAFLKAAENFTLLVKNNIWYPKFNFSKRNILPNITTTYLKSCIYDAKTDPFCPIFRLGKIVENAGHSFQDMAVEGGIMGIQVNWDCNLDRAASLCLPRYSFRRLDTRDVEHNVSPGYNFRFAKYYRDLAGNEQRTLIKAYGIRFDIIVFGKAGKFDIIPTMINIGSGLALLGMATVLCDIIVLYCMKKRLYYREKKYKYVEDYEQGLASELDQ
Method in brief: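 HEK293 cells stably expressing human P2X4 were loaded with Fluo8-AM (30 min, 37 °C, HBSS/HEPES pH 7.4 with probenecid), then preincubated 30 min at room temperature with compound, 25 μM–1 nM final, 0.5% DMSO. Bz-ATP-evoked calcium fluorescence was read on FLIPR; data were normalized to agonist control and given a four-parameter fit for IC50.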

## CC(=O)N(c1ccc(F)c(F)c1)c1cc(NC(=O)Cc2ccccc2C(F)(F)F)ccn1 [Example 63, N-(3,4-difluorophenyl)-N-(4-{2-[2-(trifluoromethyl)phenyl]acetamido}pyridin-2-yl)acetamide]
[1]
  IC50: 0.372 µM
  Rat P2X4 1321N1 Astrocytoma Cells (FLIPR Assay) avg Efficacy: 97%
[2]
  Human P2X4 HEK Cells (FLIPR Assay) avg Efficacy: 97%
  IC50: 0.424 µM

## CC(=O)N(c1ccc(F)c(F)c1)c1cc(NC(=O)Cc2c(C)cc(Cl)cc2Cl)ccn1 [Example 64, N-{4-[2-(2,4-dichloro-6-methylphenyl)acetamido]pyridin-2-yl}-N-(3,4-difluorophenyl)acetamide]
[1]
  IC50: 0.497 µM
  Rat P2X4 1321N1 Astrocytoma Cells (FLIPR Assay) avg Efficacy: 100%
[2]
  Human P2X4 HEK Cells (FLIPR Assay) avg Efficacy: 96%
  IC50: 0.829 µM

## CC(=O)N(c1ccc(F)c(F)c1)c1cc(NC(=O)Cc2c(C)cc(C)cc2Cl)ccn1 [Example 65, N-{4-[2-(2-chloro-4,6-dimethylphenyl)acetamido]pyridin-2-yl}-N-(3,4-difluorophenyl)acetamide]
[1]
  IC50: 0.122 µM
  Rat P2X4 1321N1 Astrocytoma Cells (FLIPR Assay) avg Efficacy: 93%
[2]
  Human P2X4 HEK Cells (FLIPR Assay) avg Efficacy: 94%
  IC50: 0.505 µM

## CC(=O)N(c1ccc(F)c(F)c1)c1cc(NC(=O)Cc2c(C)cccc2C)ccn1 [Example 66, N-(3,4-difluorophenyl)-N-{4-[2-(2,6-dimethylphenyl)acetamido]pyridin-2-yl}acetamide]
[1]
  IC50: 0.0642 µM
  Rat P2X4 1321N1 Astrocytoma Cells (FLIPR Assay) avg Efficacy: 73%
[2]
  Human P2X4 HEK Cells (FLIPR Assay) avg Efficacy: 90%
  IC50: 0.303 µM

## CC(=O)N(c1ccc(F)c(F)c1)c1cc(NC(=O)Cc2ccc(Cl)cc2Cl)ccn1 [Example 67, N-{4-[2-(2,4-dichlorophenyl)acetamido]pyridin-2-yl}-N-(3,4-difluorophenyl)acetamide]
[1]
  IC50: 0.159 µM
  Rat P2X4 1321N1 Astrocytoma Cells (FLIPR Assay) avg Efficacy: 97%
[2]
  Human P2X4 HEK Cells (FLIPR Assay) avg Efficacy: 94%
  IC50: 0.604 µM

## CC(=O)N(c1ccc(F)c(F)c1)c1cc(NC(=O)Cc2ccc([N+](=O)[O-])cc2Cl)ccn1 [Example 69, N-{4-[2-(2-chloro-4-nitrophenyl)acetamido]pyridin-2-yl}-N-(3,4-difluorophenyl)acetamide]
[1]
  IC50: 0.228 µM
  Rat P2X4 1321N1 Astrocytoma Cells (FLIPR Assay) avg Efficacy: 100%
[2]
  Human P2X4 HEK Cells (FLIPR Assay) avg Efficacy: 94%
  IC50: 0.816 µM

## COc1ccc(CC(=O)Nc2ccnc(N(C(C)=O)c3ccc(F)c(F)c3)c2)c(Cl)c1 [Example 70, N-{4-[2-(2-chloro-4-methoxyphenyl)acetamido]pyridin-2-yl}-N-(3,4-difluorophenyl)acetamide]
[1]
  IC50: 0.714 µM
  Rat P2X4 1321N1 Astrocytoma Cells (FLIPR Assay) avg Efficacy: 100%
[2]
  Human P2X4 HEK Cells (FLIPR Assay) avg Efficacy: 88%
  IC50: 0.714 µM

## CC(=O)N(c1ccc(F)c(F)c1)c1cc(NC(=O)Cc2cccc(F)c2Cl)ccn1 [Example 71, N-{4-[2-(2-chloro-3-fluorophenyl)acetamido]pyridin-2-yl}-N-(3,4-difluorophenyl)acetamide]
[1]
  IC50: 0.165 µM
  Rat P2X4 1321N1 Astrocytoma Cells (FLIPR Assay) avg Efficacy: 90%
[2]
  Human P2X4 HEK Cells (FLIPR Assay) avg Efficacy: 96%
  IC50: 0.222 µM

## CC(=O)N(c1ccc(F)c(F)c1)c1cc(NC(=O)Cc2c(Cl)cccc2Cl)ccn1 [Example 72, N-{4-[2-(2,6-dichlorophenyl)acetamido]pyridin-2-yl}-N-(3,4-difluorophenyl)acetamide]
[1]
  IC50: 0.0585 µM
  Rat P2X4 1321N1 Astrocytoma Cells (FLIPR Assay) avg Efficacy: 89%
[2]
  Human P2X4 HEK Cells (FLIPR Assay) avg Efficacy: 97%
  IC50: 0.355 µM

## CC(=O)N(c1ccc(F)c(F)c1)c1cc(NC(=O)Cc2c(Cl)cc(F)cc2Cl)ccn1 [Example 73, N-{4-[2-(2,6-dichloro-4-fluorophenyl)acetamido]pyridin-2-yl}-N-(3,4-difluorophenyl)acetamide]
[1]
  IC50: 0.0671 µM
  Rat P2X4 1321N1 Astrocytoma Cells (FLIPR Assay) avg Efficacy: 93%
[2]
  Human P2X4 HEK Cells (FLIPR Assay) avg Efficacy: 97%
  IC50: 0.428 µM

## CC(=O)N(c1ccc(F)c(F)c1)c1cc(NC(=O)Cc2c(Cl)cc(C)cc2Cl)ccn1 [Example 74, N-{4-[2-(2,6-dichloro-4-methylphenyl)acetamido]pyridin-2-yl}-N-(3,4-difluorophenyl)acetamide]
[1]
  IC50: 0.0991 µM
  Rat P2X4 1321N1 Astrocytoma Cells (FLIPR Assay) avg Efficacy: 97%
[2]
  Human P2X4 HEK Cells (FLIPR Assay) avg Efficacy: 89%
  IC50: 0.585 µM

## CC(=O)N(c1ccc(F)c(F)c1)c1cc(NC(=O)Cc2ccccc2OC(F)(F)F)ccn1 [Example 76, N-(3,4-difluorophenyl)-N-(4-{2-[2-(trifluoromethoxy)phenyl]acetamido}pyridin-2-yl)acetamide]
[1]
  IC50: 0.667 µM
  Rat P2X4 1321N1 Astrocytoma Cells (FLIPR Assay) avg Efficacy: 99%
[2]
  Human P2X4 HEK Cells (FLIPR Assay) avg Efficacy: 97%
  IC50: 0.397 µM

## COc1ccc(N(C(C)=O)c2cc(NC(=O)Cc3ccccc3Cl)ccn2)cc1F [Example 77, N-{4-[2-(2-chlorophenyl)acetamido]pyridin-2-yl}-N-(3-fluoro-4-methoxyphenyl)acetamide]
[1]
  IC50: 0.993 µM
  Rat P2X4 1321N1 Astrocytoma Cells (FLIPR Assay) avg Efficacy: 84%
[2]
  Human P2X4 HEK Cells (FLIPR Assay) avg Efficacy: 94%
  IC50: 0.354 µM

## COc1ccc(N(C(C)=O)c2cc(NC(=O)Cc3cccc(F)c3Cl)ccn2)cc1F [Example 79, N-{4-[2-(2-chloro-3-fluorophenyl)acetamido]pyridin-2-yl}-N-(3-fluoro-4-methoxyphenyl)acetamide]
[1]
  IC50: 1.11 µM
  Rat P2X4 1321N1 Astrocytoma Cells (FLIPR Assay) avg Efficacy: 96%
[2]
  Human P2X4 HEK Cells (FLIPR Assay) avg Efficacy: 97%
  IC50: 0.399 µM

## COc1ccc(N(C(C)=O)c2cc(NC(=O)Cc3c(Cl)cccc3Cl)ccn2)cc1F [Example 80, N-{4-[2-(2,6-dichlorophenyl)acetamido]pyridin-2-yl}-N-(3-fluoro-4-methoxyphenyl)acetamide]
[1]
  IC50: 0.338 µM
  Rat P2X4 1321N1 Astrocytoma Cells (FLIPR Assay) avg Efficacy: 97%
[2]
  Human P2X4 HEK Cells (FLIPR Assay) avg Efficacy: 99%
  IC50: 0.451 µM

## CC(=O)N(c1cc(F)cc(F)c1)c1cc(NC(=O)Cc2cccc(C)c2C)ccn1 [Example 83, N-(3,5-difluorophenyl)-N-{4-[2-(2,3-dimethylphenyl)acetamido]pyridin-2-yl}acetamide]
[1]
  IC50: 0.143 µM
  Rat P2X4 1321N1 Astrocytoma Cells (FLIPR Assay) avg Efficacy: 90%
[2]
  Human P2X4 HEK Cells (FLIPR Assay) avg Efficacy: 97%
  IC50: 0.35 µM

## CC(=O)N(c1cc(F)cc(F)c1)c1cc(NC(=O)Cc2ccccc2C(F)(F)F)ccn1 [Example 84, N-(3,5-difluorophenyl)-N-(4-{2-[2-(trifluoromethyl)phenyl]acetamido}pyridin-2-yl)acetamide]
[1]
  IC50: 1.03 µM
  Rat P2X4 1321N1 Astrocytoma Cells (FLIPR Assay) avg Efficacy: 100%
[2]
  Human P2X4 HEK Cells (FLIPR Assay) avg Efficacy: 100%
  IC50: 0.314 µM

## CC(=O)N(c1cc(F)cc(F)c1)c1cc(NC(=O)Cc2c(C)cccc2C)ccn1 [Example 85, N-(3,5-difluorophenyl)-N-{4-[2-(2,6-dimethylphenyl)acetamido]pyridin-2-yl}acetamide]
[1]
  IC50: 0.229 µM
  Rat P2X4 1321N1 Astrocytoma Cells (FLIPR Assay) avg Efficacy: 97%
[2]
  Human P2X4 HEK Cells (FLIPR Assay) avg Efficacy: 98%
  IC50: 0.251 µM
